# According to ChEMBL document CHEMBL3727364, “Resorcinol n-aryl amide compounds, for use as pyruvate dehydrogenase kinase inhibitors” (2015):
# Biological target: [Pyruvate dehydrogenase (acetyl-transferring)] kinase isozyme 1, mitochondrial (Homo sapiens, UniProt Q15118)
# Experiment: Binding affinity to pyruvate dehydrogenase kinase 1 (unknown origin) incubated for 90 mins by VER-00160364 probe based fluorescence polarization assay
# Sequence of [Pyruvate dehydrogenase (acetyl-transferring)] kinase isozyme 1, mitochondrial (Q15118 whole entry): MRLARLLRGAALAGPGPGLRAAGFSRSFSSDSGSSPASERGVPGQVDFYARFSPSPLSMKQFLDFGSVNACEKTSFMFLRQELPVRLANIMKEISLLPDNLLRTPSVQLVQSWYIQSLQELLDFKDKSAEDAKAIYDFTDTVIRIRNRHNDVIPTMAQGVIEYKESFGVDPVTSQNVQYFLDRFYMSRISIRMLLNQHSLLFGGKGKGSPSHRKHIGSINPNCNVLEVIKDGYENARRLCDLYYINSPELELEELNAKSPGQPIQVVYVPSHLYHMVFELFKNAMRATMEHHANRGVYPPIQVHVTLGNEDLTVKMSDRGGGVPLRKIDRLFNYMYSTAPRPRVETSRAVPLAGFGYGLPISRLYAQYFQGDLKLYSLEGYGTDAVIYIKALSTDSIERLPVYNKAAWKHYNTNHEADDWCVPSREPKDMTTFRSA
row,IC50 [nM],SMILES
1,1000,Cc1ccc(C)c(-c2ccc(N(Cc3cccnc3)C(=O)c3ccc(O)cc3O)cc2)n1
2,1000,Cc1cccnc1-c1ccc(N(Cc2ccccc2)C(=O)c2ccc(O)cc2O)cc1
3,1000,N#Cc1cncnc1-c1ccc(N(Cc2ccccc2)C(=O)c2ccc(O)cc2O)cc1
4,10,O=C(c1ccc(O)cc1O)N(Cc1ccccc1)c1ccc(-c2ccccc2Cl)cc1
5,100,O=C(c1ccc(O)cc1O)N(Cc1cccnc1)c1ccc(-c2ncccc2CO)cc1
6,100,CN(Cc1ccc2ccccc2n1)C(=O)c1ccc(N(Cc2cccnc2)C(=O)c2ccc(O)cc2O)cc1
7,1000,COc1ccc(CNC(=O)c2ccc(N(Cc3ccccc3)C(=O)c3ccc(O)cc3O)cc2)cc1
8,100,O=C(c1ccc(O)cc1O)N(Cc1ccccc1)c1ccc(-c2ccc(-n3ccnc3)nn2)cc1
9,100,CNc1nccc(-c2ccc(N(Cc3cccnc3)C(=O)c3ccc(O)cc3O)cc2)n1
10,1000,Cc1nccnc1-c1ccc(N(Cc2ccccc2)C(=O)c2ccc(O)cc2O)cc1
11,100,N#Cc1cncnc1-c1ccc(N(Cc2cccnc2)C(=O)c2ccc(O)cc2O)cc1
12,1000,O=C(c1ccc(O)cc1O)N(Cc1ccccc1)c1ccc(-c2nc3ccccc3nc2C(F)(F)F)cc1
13,100,CSc1ccc(CN(C(=O)c2ccc(O)cc2O)c2ccc(-c3nc4ccccc4cc3C)cc2)cc1
14,1000,O=C(c1ccc(O)cc1O)N(Cc1ccccc1)c1ccc(-c2ccc(N3CCOCC3)nn2)cc1
15,10,Cc1cnc(Cl)nc1-c1ccc(N(Cc2ccccc2)C(=O)c2ccc(O)cc2O)cc1
16,1000,O=C(c1ccc(O)cc1O)N(Cc1cccnc1)c1ccc(-c2cc3cncnc3[nH]2)cc1
17,10,Cc1cc2ccccc2nc1-c1ccc(N(Cc2cccnc2)C(=O)c2ccc(O)cc2O)cc1
18,1000,Cc1ccc(-c2ccc(N(Cc3cccnc3)C(=O)c3ccc(O)cc3O)cc2)c(Cl)c1
19,100,CNS(=O)(=O)c1cnc(-c2ccc(N(Cc3ccccc3)C(=O)c3ccc(O)cc3O)cc2)c(C)c1
20,10,Cc1cc(Cl)nnc1-c1ccc(N(Cc2cccnc2)C(=O)c2ccc(O)cc2O)cc1
21,10,Cc1ccc(C)c(-c2ccc(N(Cc3ccccc3)C(=O)c3ccc(O)cc3O)cc2)n1
22,1000,Cc1cnc(-c2ccccc2)nc1-c1ccc(N(Cc2ccccc2)C(=O)c2ccc(O)cc2O)cc1
23,10,CN(Cc1ccc2nccnc2c1)C(=O)c1ccc(N(Cc2ccccc2)C(=O)c2ccc(O)cc2O)cc1
24,1000,Cc1cc2ccccc2nc1-c1ccc(N(Cc2ccc(Cl)cc2)C(=O)c2ccc(O)cc2O)cc1
25,100,CN(C)C(=O)c1ccc(N(Cc2ccccc2)C(=O)c2ccc(O)cc2O)cc1

row,IC50 [nM],SMILES
1,1000,O=C(c1ccc(O)cc1O)N(Cc1cccnc1)c1ccc(-c2ccc(-n3ccnc3)nn2)cc1
2,100,O=C(c1ccc(O)cc1O)N(Cc1ccsc1)c1ccc(-c2nc3ccccc3cc2CO)cc1
3,100,O=C(c1ccc(O)cc1O)N(Cc1ccccc1)c1ccc(-c2nc(-c3ccccc3)nc3ccccc23)cc1
4,1000,CS(=O)(=O)Nc1ccc(N(Cc2ccccc2)C(=O)c2ccc(O)cc2O)cc1
5,1000,O=C(c1ccc(O)cc1O)N(Cc1ccccc1)c1ccc(-c2ccc(N3CCCC3)nn2)cc1
6,100,CN(Cc1cccc2cnccc12)C(=O)c1ccc(N(Cc2ccccc2)C(=O)c2ccc(O)cc2O)cc1
7,100,Cc1nc(-c2ccc(N(Cc3cccnc3)C(=O)c3ccc(O)cc3O)cc2)c2ccccc2n1
8,100,Nc1ccc(-c2ccc(N(Cc3ccccc3)C(=O)c3ccc(O)cc3O)cc2)nn1
9,1000,O=C(O)c1nc(-c2ccc(N(Cc3ccccc3)C(=O)c3ccc(O)cc3O)cc2)c2ccccc2n1
10,100,Cc1ncc(C)c(-c2ccc(N(Cc3ccccc3)C(=O)c3ccc(O)cc3O)cc2)n1
11,1000,N#Cc1cccc(-c2ccc(N(Cc3cccnc3)C(=O)c3ccc(O)cc3O)cc2)c1
12,1000,Cc1cnc(-c2cccnc2)nc1-c1ccc(N(Cc2ccccc2)C(=O)c2ccc(O)cc2O)cc1
13,100,CN(Cc1cccc2ncccc12)C(=O)c1ccc(N(Cc2ccccc2)C(=O)c2ccc(O)cc2O)cc1
14,100,O=C(c1ccc(O)cc1O)N(Cc1cccnc1)c1ccc(-c2nc3ccccc3nc2C(F)(F)F)cc1
15,100,Cc1cnc(C)c(-c2ccc(N(Cc3ccccc3)C(=O)c3ccc(O)cc3O)cc2)n1
16,100,O=C(c1ccc(O)cc1O)N(Cc1cccnc1)c1ccc(-c2nc3ccccc3cc2CO)cc1
17,100,COc1ccc2nc(-c3ccc(N(Cc4ccccc4)C(=O)c4ccc(O)cc4O)cc3)c(C)cc2c1
18,1000,Cc1cn(-c2ccc(-c3ccc(N(Cc4ccccc4)C(=O)c4ccc(O)cc4O)cc3)nn2)cn1
19,100,Cc1cc2ccccc2nc1-c1ccc(N(Cc2ccc(F)cc2)C(=O)c2ccc(O)cc2O)cc1
20,100,CN(Cc1ccc2ccccc2n1)C(=O)c1ccc(N(Cc2ccccc2)C(=O)c2ccc(O)cc2O)cc1
21,1000,Cc1c(-c2ccc(N(Cc3cccnc3)C(=O)c3ccc(O)cc3O)cc2)ccc2[nH]ncc12
22,100,CCc1nccnc1-c1ccc(N(Cc2cccnc2)C(=O)c2ccc(O)cc2O)cc1
23,100,CNc1nnc(-c2ccc(N(Cc3cccnc3)C(=O)c3ccc(O)cc3O)cc2)c2ccccc12
24,1000,O=C(c1ccc(O)cc1O)N(Cc1cccnc1)c1ccc(-c2cnc3ccccc3n2)cc1

# More lines, now with the values behind:
row,SMILES,IC50 [nM]
1,COc1cnc(Cl)nc1-c1ccc(N(Cc2ccsc2)C(=O)c2ccc(O)cc2O)cc1,100
2,Cc1cnc(Cl)nc1-c1ccc(N(Cc2ccsc2)C(=O)c2cc(Cl)c(O)cc2O)cc1,10
3,Cc1cnc(Cl)nc1-c1ccc(N(Cc2ccccc2)C(=O)c2cc(C(F)(F)F)c(O)cc2O)cc1,1000
4,Cc1ncc(C)c(-c2ccc(N(Cc3ccsc3)C(=O)c3ccc(O)cc3O)cc2)n1,10
5,Cc1cc2ccccc2nc1-c1ccc(N(Cc2ccc(CN(C)C)cc2)C(=O)c2ccc(O)cc2O)cc1,100
6,CN(Cc1ccc(C#N)cc1)C(=O)c1ccc(N(Cc2cccnc2)C(=O)c2ccc(O)cc2O)cc1,100
7,Cc1cc2ccc(F)cc2nc1-c1ccc(N(Cc2ccsc2)C(=O)c2ccc(O)cc2O)cc1,100
8,CNS(=O)(=O)c1cnc(-c2ccc(N(Cc3cccnc3)C(=O)c3ccc(O)cc3O)cc2)c(C)c1,10
9,COc1ccc(CN(C)C(=O)c2ccc(N(Cc3ccsc3)C(=O)c3ccc(O)cc3O)cc2)cc1,100
10,CN(C)C(=O)c1ccc(N(Cc2ccc(F)cc2)C(=O)c2cc(Cl)c(O)cc2O)cc1,100
11,CN(Cc1ccc(OC(F)(F)F)cc1)C(=O)c1ccc(N(Cc2cccnc2)C(=O)c2ccc(O)cc2O)cc1,100
12,CN(Cc1cccc2cnccc12)C(=O)c1ccc(N(Cc2cccnc2)C(=O)c2ccc(O)cc2O)cc1,100
13,CN(Cc1cccc2ncccc12)C(=O)c1ccc(N(Cc2cccnc2)C(=O)c2ccc(O)cc2O)cc1,100
14,CC(=O)NCCNS(=O)(=O)c1cnc(-c2ccc(N(Cc3ccccc3)C(=O)c3ccc(O)cc3O)cc2)c(C)c1,10
15,CN(C)C(=O)c1ccc(N(Cc2cccnc2)C(=O)c2cc(Cl)c(O)cc2O)cc1,10
16,CN(C)C(=O)c1ccc(N(Cc2ccccn2)C(=O)c2cc(Cl)c(O)cc2O)cc1,100
17,Cc1cnc(Cl)nc1-c1ccc(N(Cc2ccc(CN3CCCC3)cc2)C(=O)c2ccc(O)cc2O)cc1,10
18,COc1ccc(CN(C)C(=O)c2ccc(N(Cc3ccsc3)C(=O)c3cc(Cl)c(O)cc3O)cc2)cc1,100
19,COc1cnc(-c2ccc(N(Cc3cccnc3)C(=O)c3ccc(O)cc3O)cc2)cc1OC,100
20,CN(C)C(=O)c1ccc(N(CC2CCNCC2)C(=O)c2cc(Cl)c(O)cc2O)cc1,100
21,COc1ccc(CN(C)C(=O)c2ccc(N(Cc3cccnc3)C(=O)c3cc(Cl)c(O)cc3O)cc2)cc1,10
22,O=C(c1ccc(O)cc1O)N(Cc1ccsc1)c1ccc(-c2nc(C(F)(F)F)nc3ccccc23)cc1,100

row,SMILES,IC50 [nM]
1,O=C(NC1CC1)c1ccc(N(Cc2cccnc2)C(=O)c2ccc(O)cc2O)cc1,1000
2,COc1cnc(Cl)nc1-c1ccc(N(Cc2ccccc2)C(=O)c2ccc(O)cc2O)cc1C,1000
3,Cc1ccc(S(N)(=O)=O)nc1-c1ccc(N(Cc2ccsc2)C(=O)c2ccc(O)cc2O)cc1,100
4,CN(C)C(=O)c1ccc(N(Cc2ccn(C)n2)C(=O)c2ccc(O)cc2O)cc1,100
5,CN(Cc1ccc(OC(F)(F)F)cc1)C(=O)c1ccc(N(Cc2ccsc2)C(=O)c2ccc(O)cc2O)cc1,1000
6,O=C(c1ccc(O)cc1O)N(Cc1ccsc1)c1ccc(-c2ncnc3cccc(F)c23)cc1,100
7,Cc1nccnc1-c1ccc(N(Cc2ccccc2)C(=O)c2ccc(O)cc2O)cc1F,1000
8,Cc1cc(S(=O)(=O)N2CCN(C)CC2)cnc1-c1ccc(N(Cc2cccnc2)C(=O)c2ccc(O)cc2O)cc1,10
9,O=C(c1ccc(O)cc1O)N(Cc1ccsc1)c1ccc(-c2nc(Cl)nc3[nH]ccc23)cc1,1000
10,Cc1cnc(-c2ccc(N(Cc3cccnc3)C(=O)c3ccc(O)cc3O)cc2)c(C)n1,10
11,Cc1cc2ccccc2nc1-c1ccc(N(Cc2ccc(CN3CCCC3)cc2)C(=O)c2ccc(O)cc2O)cc1,100
12,Cc1cnc(Cl)nc1-c1ccc(N(C(=O)c2ccc(O)cc2O)[C@H](C)c2ccccc2)cc1,100
13,CC(c1ccccc1)N(C(=O)c1cc(Cl)c(O)cc1O)c1ccc(C(=O)N(C)C)cc1 (configuration not stated),100
14,CSc1nc(-c2ccc(N(Cc3cccnc3)C(=O)c3ccc(O)cc3O)cc2)c2cc[nH]c2n1,100
15,Cc1cc2cc(Cl)ccc2nc1-c1ccc(N(Cc2ccsc2)C(=O)c2ccc(O)cc2O)cc1,1000
16,Cc1cc(N(Cc2ccccc2)C(=O)c2ccc(O)cc2O)ccc1-c1nc(Cl)ncc1C,1000
17,Cc1nccnc1-c1ccc(N(Cc2ccsc2)C(=O)c2ccc(O)cc2O)cc1,100
18,CCOC(=O)c1nc(C)nc(-c2ccc(N(Cc3cccnc3)C(=O)c3ccc(O)cc3O)cc2)c1C,100
19,Cc1cnc(Cl)nc1-c1ccc(N(Cc2cccc(Cn3ccnc3)c2)C(=O)c2cc(Cl)c(O)cc2O)cc1,10
20,Cc1cc(C(=O)N(Cc2ccsc2)c2ccc(C(=O)N(C)Cc3ccc4nccnc4c3)cc2)c(O)cc1O,10
21,O=C(c1ccc(O)cc1O)N(Cc1ccsc1)c1ccc(-c2ncccc2CO)cc1,100
